Test results published in publication PMC7549094 (Journal of Medicinal Chemistry, 2020).

How the values were obtained:
rr AR ag = molecular target: T1, rr AR ag (Rattus norvegicus, UniProt P15207); test: receptor profile (Table S4); assay type: biochemical
T1 sequence (P15207 1-902): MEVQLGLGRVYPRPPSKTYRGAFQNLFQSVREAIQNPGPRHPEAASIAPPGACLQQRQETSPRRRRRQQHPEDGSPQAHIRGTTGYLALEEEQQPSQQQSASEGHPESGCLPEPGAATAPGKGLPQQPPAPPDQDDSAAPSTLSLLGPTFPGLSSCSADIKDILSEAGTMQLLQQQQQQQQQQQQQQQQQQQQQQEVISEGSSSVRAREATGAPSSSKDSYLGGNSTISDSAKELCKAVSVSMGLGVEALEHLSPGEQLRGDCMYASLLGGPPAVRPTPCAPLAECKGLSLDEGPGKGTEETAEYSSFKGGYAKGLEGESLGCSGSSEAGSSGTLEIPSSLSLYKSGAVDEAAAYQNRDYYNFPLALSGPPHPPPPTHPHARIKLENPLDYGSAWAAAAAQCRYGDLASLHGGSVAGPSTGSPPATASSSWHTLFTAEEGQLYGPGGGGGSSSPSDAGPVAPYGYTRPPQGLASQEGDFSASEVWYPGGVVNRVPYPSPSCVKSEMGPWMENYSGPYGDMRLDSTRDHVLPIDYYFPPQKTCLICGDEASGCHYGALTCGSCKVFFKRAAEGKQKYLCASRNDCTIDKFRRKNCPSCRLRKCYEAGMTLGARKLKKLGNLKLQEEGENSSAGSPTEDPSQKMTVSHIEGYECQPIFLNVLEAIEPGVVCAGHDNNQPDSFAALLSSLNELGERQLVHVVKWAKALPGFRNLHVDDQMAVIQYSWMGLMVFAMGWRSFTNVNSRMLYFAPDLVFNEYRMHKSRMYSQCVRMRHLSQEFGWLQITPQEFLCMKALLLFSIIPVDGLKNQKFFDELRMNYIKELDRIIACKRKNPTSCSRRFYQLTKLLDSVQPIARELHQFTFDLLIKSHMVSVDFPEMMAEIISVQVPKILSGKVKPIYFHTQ

hr H1 = hr H1 (Homo sapiens, UniProt P35367); test: receptor profile (Table S4); assay type: binding
hr ACES = hr ACES (Homo sapiens, UniProt P22303); test: receptor profile (Table S4); assay type: biochemical
BSEP = BSEP (Homo sapiens, UniProt O95342); test: receptor profile (Table S4), second BSEP line; conditions: human
hr BSEP = hr BSEP (Homo sapiens, UniProt O95342); test: receptor profile (Table S4), second BSEP line; conditions: hr BSEP, second line
human CYP2D6 = human CYP2D6 (Homo sapiens, UniProt P10635); conditions: human recombinant CYP; 1 µM, 30 min
hr V1a = hr V1a (Homo sapiens, UniProt P37288); test: receptor profile (Table S4); assay type: binding
hERG = hERG (Homo sapiens, UniProt Q12809); test: hERG manual patch clamp assay; conditions: read-out: hERG channel IC50
hr Al1A ag = molecular target: T2, hr Al1A ag (Homo sapiens, UniProt P35348); test: receptor profile (Table S4); assay type: biochemical
T2 sequence (P35348 1-466): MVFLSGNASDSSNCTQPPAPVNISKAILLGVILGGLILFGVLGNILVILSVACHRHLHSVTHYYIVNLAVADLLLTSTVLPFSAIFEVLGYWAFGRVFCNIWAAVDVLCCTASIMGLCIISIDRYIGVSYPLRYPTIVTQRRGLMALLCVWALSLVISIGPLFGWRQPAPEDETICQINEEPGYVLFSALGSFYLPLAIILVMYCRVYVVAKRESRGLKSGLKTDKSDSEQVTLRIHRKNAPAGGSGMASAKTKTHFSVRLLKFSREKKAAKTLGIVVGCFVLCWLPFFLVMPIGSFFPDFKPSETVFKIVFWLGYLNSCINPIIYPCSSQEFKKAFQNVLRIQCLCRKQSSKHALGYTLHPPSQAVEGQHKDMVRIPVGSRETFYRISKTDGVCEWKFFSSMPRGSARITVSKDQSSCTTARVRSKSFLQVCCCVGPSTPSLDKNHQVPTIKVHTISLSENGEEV

hr Beta2 ag = hr Beta2 ag (Homo sapiens, UniProt P07550); test: receptor profile (Table S4); assay type: biochemical
hr PPARg ag = molecular target: T3, hr PPARg ag (Homo sapiens, UniProt P37231); test: receptor profile (Table S4); assay type: biochemical
T3 sequence (P37231 1-505): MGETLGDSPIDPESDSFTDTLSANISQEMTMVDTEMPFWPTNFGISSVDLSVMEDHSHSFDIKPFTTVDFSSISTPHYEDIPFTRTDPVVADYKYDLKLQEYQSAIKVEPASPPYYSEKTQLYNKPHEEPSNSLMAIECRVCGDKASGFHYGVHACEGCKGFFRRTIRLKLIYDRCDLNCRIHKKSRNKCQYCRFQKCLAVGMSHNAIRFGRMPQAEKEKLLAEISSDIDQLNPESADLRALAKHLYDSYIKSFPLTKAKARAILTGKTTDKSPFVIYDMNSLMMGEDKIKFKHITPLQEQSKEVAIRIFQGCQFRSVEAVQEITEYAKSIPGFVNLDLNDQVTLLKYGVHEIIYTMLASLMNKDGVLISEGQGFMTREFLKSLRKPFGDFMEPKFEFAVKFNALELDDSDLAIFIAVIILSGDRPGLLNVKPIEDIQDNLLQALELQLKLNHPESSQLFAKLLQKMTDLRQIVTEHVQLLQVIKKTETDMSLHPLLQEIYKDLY

hr 5-HT2B antag = hr 5-HT2B antag (Homo sapiens, UniProt P41595); test: receptor profile (Table S4); assay type: biochemical
Sequence of hr 5-HT2B antag (P41595 whole entry): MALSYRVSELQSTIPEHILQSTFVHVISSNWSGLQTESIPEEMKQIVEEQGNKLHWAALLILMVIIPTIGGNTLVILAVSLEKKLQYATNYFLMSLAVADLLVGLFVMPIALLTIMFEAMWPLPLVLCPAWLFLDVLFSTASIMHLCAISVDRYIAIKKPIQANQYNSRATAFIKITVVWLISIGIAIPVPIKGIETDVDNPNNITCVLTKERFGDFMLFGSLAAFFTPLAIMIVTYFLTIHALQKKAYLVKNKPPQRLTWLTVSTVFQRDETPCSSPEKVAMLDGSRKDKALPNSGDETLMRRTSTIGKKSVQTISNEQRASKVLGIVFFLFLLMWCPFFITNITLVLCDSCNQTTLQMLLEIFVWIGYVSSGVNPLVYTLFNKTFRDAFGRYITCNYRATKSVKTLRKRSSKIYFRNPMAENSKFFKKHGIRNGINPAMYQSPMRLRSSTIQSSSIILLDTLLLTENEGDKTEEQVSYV

Sequence of hr H1 (P35367 whole entry): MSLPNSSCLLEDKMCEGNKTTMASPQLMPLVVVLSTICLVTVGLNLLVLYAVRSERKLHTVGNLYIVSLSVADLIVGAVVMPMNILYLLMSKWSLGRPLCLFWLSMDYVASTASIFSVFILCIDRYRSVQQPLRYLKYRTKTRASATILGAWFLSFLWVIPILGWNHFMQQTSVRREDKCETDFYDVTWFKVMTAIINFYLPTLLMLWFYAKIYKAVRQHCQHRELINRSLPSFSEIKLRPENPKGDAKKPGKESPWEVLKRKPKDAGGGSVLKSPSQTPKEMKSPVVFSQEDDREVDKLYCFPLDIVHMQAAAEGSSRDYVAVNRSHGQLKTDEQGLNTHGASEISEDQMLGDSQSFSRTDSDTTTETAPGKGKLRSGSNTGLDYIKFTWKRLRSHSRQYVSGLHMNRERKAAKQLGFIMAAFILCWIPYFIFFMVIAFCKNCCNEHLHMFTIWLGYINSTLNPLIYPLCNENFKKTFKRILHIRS
Sequence of hr Beta2 ag (P07550 whole entry): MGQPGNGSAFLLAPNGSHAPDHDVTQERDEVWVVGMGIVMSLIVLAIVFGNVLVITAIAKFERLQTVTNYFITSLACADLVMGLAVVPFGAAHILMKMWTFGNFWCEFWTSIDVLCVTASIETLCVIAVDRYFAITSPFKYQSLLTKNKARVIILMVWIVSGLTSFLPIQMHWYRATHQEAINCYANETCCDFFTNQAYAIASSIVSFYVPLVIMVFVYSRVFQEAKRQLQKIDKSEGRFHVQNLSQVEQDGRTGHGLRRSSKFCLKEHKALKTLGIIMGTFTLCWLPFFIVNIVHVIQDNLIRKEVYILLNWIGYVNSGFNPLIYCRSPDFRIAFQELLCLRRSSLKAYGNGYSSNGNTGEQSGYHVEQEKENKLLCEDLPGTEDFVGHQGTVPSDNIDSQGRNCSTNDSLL
Sequence of hr V1a (P37288 whole entry): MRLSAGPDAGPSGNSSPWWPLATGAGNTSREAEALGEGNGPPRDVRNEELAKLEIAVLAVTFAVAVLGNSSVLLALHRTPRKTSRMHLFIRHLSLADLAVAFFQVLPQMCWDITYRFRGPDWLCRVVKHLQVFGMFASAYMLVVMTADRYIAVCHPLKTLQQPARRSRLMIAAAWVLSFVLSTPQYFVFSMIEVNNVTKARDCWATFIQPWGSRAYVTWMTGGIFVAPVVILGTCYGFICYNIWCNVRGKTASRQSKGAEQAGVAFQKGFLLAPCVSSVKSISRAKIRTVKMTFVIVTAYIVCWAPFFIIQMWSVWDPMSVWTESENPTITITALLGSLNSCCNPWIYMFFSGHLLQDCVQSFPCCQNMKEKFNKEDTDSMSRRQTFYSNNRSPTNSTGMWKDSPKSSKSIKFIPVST
Sequence of hr ACES (P22303 32-614): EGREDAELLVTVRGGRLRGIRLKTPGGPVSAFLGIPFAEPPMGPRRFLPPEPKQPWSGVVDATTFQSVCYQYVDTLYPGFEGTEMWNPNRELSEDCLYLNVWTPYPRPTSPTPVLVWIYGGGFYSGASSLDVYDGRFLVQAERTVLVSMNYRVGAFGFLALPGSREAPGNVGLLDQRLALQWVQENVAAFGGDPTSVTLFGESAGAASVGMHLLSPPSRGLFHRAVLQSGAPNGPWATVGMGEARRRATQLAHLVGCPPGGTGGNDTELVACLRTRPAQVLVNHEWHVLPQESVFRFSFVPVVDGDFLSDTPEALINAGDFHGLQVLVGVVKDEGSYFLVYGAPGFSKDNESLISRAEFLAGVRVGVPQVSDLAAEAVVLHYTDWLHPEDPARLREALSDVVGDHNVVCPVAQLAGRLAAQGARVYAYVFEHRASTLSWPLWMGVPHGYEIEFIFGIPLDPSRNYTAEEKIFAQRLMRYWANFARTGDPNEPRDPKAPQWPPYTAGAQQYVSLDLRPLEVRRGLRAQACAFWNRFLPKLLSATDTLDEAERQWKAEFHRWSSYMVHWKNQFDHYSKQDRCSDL
Sequence of BSEP (O95342 whole entry): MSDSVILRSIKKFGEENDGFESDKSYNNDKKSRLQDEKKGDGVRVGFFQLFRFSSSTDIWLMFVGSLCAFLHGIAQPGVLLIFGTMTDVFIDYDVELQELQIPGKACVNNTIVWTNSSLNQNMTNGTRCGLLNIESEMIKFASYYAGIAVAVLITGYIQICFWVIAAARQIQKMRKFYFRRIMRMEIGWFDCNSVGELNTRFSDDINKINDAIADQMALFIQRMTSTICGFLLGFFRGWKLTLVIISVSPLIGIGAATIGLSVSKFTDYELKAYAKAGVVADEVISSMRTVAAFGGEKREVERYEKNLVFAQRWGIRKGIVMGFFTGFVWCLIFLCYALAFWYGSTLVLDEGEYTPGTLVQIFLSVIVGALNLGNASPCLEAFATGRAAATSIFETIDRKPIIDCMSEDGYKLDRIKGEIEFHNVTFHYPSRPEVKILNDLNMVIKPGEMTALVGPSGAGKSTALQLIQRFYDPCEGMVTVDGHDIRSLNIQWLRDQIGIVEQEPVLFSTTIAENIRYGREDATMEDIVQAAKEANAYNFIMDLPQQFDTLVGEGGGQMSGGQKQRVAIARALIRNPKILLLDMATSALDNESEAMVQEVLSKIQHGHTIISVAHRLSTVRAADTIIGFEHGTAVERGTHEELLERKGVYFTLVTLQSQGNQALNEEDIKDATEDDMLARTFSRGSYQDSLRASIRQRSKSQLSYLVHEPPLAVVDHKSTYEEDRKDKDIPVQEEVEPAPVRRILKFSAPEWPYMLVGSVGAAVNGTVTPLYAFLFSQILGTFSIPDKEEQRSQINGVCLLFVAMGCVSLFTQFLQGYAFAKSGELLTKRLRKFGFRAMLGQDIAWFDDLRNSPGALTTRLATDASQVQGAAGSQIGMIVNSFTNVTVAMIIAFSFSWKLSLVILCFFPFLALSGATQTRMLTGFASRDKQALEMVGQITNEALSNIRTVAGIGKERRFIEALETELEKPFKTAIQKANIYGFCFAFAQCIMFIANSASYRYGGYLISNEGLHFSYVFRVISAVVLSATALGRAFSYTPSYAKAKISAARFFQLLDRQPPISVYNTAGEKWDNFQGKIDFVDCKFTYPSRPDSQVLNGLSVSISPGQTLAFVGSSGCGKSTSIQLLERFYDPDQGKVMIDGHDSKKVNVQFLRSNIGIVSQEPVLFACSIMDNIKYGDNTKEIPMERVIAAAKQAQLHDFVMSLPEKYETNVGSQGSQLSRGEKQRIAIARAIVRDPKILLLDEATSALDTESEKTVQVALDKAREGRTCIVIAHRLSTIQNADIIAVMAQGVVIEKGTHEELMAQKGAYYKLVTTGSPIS
Sequence of hr BSEP (O95342 whole entry): as above
Sequence of hERG (Q12809 whole entry): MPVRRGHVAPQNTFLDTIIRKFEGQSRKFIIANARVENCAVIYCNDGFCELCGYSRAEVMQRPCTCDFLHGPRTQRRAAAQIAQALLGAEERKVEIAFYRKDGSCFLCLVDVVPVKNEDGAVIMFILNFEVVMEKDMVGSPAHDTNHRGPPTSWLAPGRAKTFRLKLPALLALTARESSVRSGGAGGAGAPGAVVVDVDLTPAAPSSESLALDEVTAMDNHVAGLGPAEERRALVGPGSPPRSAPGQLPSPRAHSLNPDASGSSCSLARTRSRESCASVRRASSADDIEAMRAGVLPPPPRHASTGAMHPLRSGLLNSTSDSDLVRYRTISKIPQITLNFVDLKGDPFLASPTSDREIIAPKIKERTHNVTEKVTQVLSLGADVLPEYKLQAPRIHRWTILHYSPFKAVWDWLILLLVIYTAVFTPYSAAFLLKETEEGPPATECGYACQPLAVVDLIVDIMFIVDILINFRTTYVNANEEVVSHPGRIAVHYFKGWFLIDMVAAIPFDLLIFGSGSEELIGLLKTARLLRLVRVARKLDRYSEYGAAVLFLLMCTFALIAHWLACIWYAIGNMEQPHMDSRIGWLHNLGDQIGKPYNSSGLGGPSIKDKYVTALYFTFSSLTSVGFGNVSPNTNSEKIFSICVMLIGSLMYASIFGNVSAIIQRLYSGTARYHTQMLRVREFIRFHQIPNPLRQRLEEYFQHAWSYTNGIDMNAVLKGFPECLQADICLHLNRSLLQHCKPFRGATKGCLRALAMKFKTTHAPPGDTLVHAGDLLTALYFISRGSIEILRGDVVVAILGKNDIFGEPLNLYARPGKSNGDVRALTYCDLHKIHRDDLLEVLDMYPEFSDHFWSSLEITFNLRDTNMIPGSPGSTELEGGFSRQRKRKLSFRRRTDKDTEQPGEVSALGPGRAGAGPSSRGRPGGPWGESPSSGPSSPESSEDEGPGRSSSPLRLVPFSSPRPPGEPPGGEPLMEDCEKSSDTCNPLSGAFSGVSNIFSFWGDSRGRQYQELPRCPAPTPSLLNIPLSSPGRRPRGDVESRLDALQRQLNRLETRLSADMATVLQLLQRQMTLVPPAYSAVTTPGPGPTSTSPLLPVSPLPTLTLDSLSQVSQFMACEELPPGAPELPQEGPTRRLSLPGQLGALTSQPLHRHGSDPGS

`Cc1nc(C)c(C(=O)Nc2ccc(F)c(-c3nc4ncc(-c5ncccc5C)cn4n3)c2)o1` [compound 1, N-(4-Fluoro-3-(6-(3-methylpyridin-2-yl)-[1,2,4]triazolo[1,5-a]pyrimidin-2-yl)phenyl)-2,4-dimethyloxazole-5-carboxamide] was tested, and the inhibition at 10 µM (rr AR ag; read-out: % inh/act @ 10 µM) was 1%, the inhibition at 30 µM (rr AR ag; read-out: % inh/act @ 30 µM) was 0% and the EC50/IC50 (rr AR ag; rr AR ag) was greater than 30 µM. The “% inh/act @ 10 µM” value (r BZD) was 7%, the “% inh/act @ 30 µM” value (r BZD) was 7% and the EC50/IC50 (hr H1; hr H1) was greater than 30 µM. It also gave an inhibition at 10 µM (hr H1; read-out: % inh/act @ 10 µM) of 10%, an inhibition at 30 µM (hr H1; read-out: % inh/act @ 30 µM) of 24% and an EC50/IC50 (hr ACES; hr ACES) greater than 30 µM. For the same compound, the inhibition at 10 µM (hr ACES; read-out: % inh/act @ 10 µM) was 16%, the inhibition at 10 µM (BSEP) was 40% and the inhibition at 30 µM (BSEP) was 56%. The EC50/IC50 (hr BSEP) was 17 µM, the “substrate of human CYP2D6” value (human CYP2D6) was “not a substrate” and the EC50/IC50 (hr V1a; hr V1a) was greater than 30 µM. For the same compound, the inhibition at 10 µM (hr V1a; read-out: % inh/act @ 10 µM) was 11%, the inhibition at 30 µM (hr V1a; read-out: % inh/act @ 30 µM) was 19% and the IC50 (hERG) was greater than 30 µM. It also gave an EC50/IC50 (hr Al1A ag; hr Al1A ag) greater than 30 µM, an inhibition at 10 µM (hr Al1A ag; read-out: % inh/act @ 10 µM) of 0% and an inhibition at 30 µM (hr Al1A ag; read-out: % inh/act @ 30 µM) of 1%. It also gave an EC50/IC50 (hr Beta2 ag; hr Beta2 ag) greater than 30 µM, an inhibition at 10 µM (hr Beta2 ag; read-out: % inh/act @ 10 µM) of 1% and an inhibition at 30 µM (hr Beta2 ag; read-out: % inh/act @ 30 µM) of 7%. For the same compound, the EC50/IC50 (hr PPARg ag; hr PPARg ag) was greater than 30 µM, the inhibition at 10 µM (hr PPARg ag; read-out: % inh/act @ 10 µM) was 4% and the inhibition at 30 µM (hr PPARg ag; read-out: % inh/act @ 30 µM) was 5%. For the same compound, the EC50/IC50 (hr 5-HT2B antag; hr 5-HT2B antag) was greater than 30 µM, the inhibition at 10 µM (hr 5-HT2B antag; read-out: % inh/act @ 10 µM) was 22% and the inhibition at 30 µM (hr 5-HT2B antag; read-out: % inh/act @ 30 µM) was 24%.
